US20230111310A1, “CARBOXYLIC ACID DERIVATIVE-SUBSTITUTED IMINO ARYL COMPOUND, PREPARATION METHOD THEREFOR, HERBICIDAL COMPOSITION AND USE THEREOF” (Qingdao Kingagroot Chemical Compound Co., Ltd., priority 2020, published 2023)
Read-outs that look alike come from different tables or passages of the source.

Key:
Type in all cases: in vivo
Veronica didyma Tenore [1] = assay: Composition activity test, post-emergence foliage spray
Protocol: (§1) are as follows, and the others were purchased from reagent companies. The technical materials were all dissolved in acetone and diluted with an aqueous solution containing 0.1% emulsifier Tween-80. The dilution is performed as required.
(§2) Weeds were cultivated by a pot culture method. […] Full and uniform weed seeds were selected, soaked in warm water at 25° C. for 6 hours, and germinated in a 28° C. biochemical incubator (darkness). The weed seeds that had just germinated were evenly placed on the surface of the soil and then covered with 0.5-1 cm soil according to the sizes of seeds.
(§3) The culture was carried out in a controllable sunlight greenhouse at 20 to 30° C., in natural light, and relative humidity of 57% to 72%.
(§4) 3 pots with 20 weed seeds per pot were treated in one treatment with 4 replications per treatment.
(§5) The agents were used for only once in the experiment. In the stage of weeds with 1.5-2 leaves, the weeds were thinned out to maintain 10 weeds per pot and 30 weeds for each treatment, then continued to be cultured to Conyza Canadensis 10 cm in height, other weeds 3-4 leaves stage and treated.
(§6) The well-cultured weeds were evenly placed on a platform with an area of 0.5 m^2, and a solution of agents was sprayed on the stems and leaves thereof by the 3WP-2000-type walking spray tower at a dosage of 450 kg/ha and at a spray pressure of 0.3 MPa. After all the solution was sprayed, the valve was closed. After 30 seconds, the door of the spray tower was opened, and the nutritional bowl was taken out. Then the valve was opened, and the spray tube was cleaned by spraying 50 ml of water. After the treatment, the weeds were routinely cultured in a greenhouse.
(§7) A method for investigating absolute number was employed, wherein whole seedlings of survival weeds were cut off with a blade along the soil surface, and the fresh weight of the weeds was weighed with an analytical balance. For dead weeds, the fresh weight thereof was zero.
(§8) The investigation was performed after 21 days of the treatment for only once.
(§9) An optimum ratio of the two active ingredients was determined by the actual control effect, characteristics of herbicides, and balance of a corresponding formula. Wherein, in the formula, X represented the fresh weight inhibition rate of the active ingredient A in a dosage of P, and Y represented the fresh weight inhibition rate of the active ingredient B in a dosage of Q. The statistical results were shown in the table 6.

Abutilon theophrasti [2] = assay: Weeding effect in post-emergence stage; settings: Dose 15 g/ha; fresh weight control rate level
Method in brief: (§10)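 Post-emergence spray tower; 2-3 leaf plants (2 wk after sowing, soil pots, greenhouse). Formulation: acetone, Tween 80, methyl oleate EC 1.5 liter/ha as synergist, water. Rates 500–7.5 g/ha. Growth control rate read at 3 wk; n=3, averaged.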

Alopecurus japonicus = assay: Weeding effect in post-emergence stage; settings: Dose 15 g/ha; fresh weight control rate level
Method in brief: as §10

Digitaria sanguinalis = assay: Weeding effect in post-emergence stage; settings: Dose 15 g/ha; fresh weight control rate level
Method in brief: as §10

Eleusine indica = assay: Weeding effect in post-emergence stage; settings: Dose 15 g/ha; fresh weight control rate level
Method in brief: as §10

Setaria viridis [3] = assay: Weeding effect in post-emergence stage; settings: Dose 15 g/ha; fresh weight control rate level
Method in brief: as §10

Echinochloa crusgalli = assay: Weeding effect in post-emergence stage; settings: Dose 15 g/ha; fresh weight control rate level
Method in brief: as §10

Abutilon theophrasti [4] = assay: Weeding effect in pre-emergence stage; settings: 30 g/ha, 4 weeks
Method in brief: (§11)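 Pots were kept in the greenhouse for 4 weeks and then rated for growth control on activity-level criteria. Spraying took place immediately after sowing at application rates of 500 to 7.5 g/ha, using an acetone/tween 80 formulation diluted with water, on seeds under 0.5-2 cm of soil.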

Amaranthus retroflexus = assay: Weeding effect in pre-emergence stage; settings: 30 g/ha, 4 weeks
Method in brief: as §11

Capsella bursa-pastoris = assay: Weeding effect in pre-emergence stage; settings: 30 g/ha, 4 weeks
Method in brief: as §11

Descurainia sophia = assay: Weeding effect in pre-emergence stage; settings: 30 g/ha, 4 weeks
Method in brief: as §11

Setaria viridis [5] = assay: Weeding effect in pre-emergence stage; settings: 30 g/ha, 4 weeks
Method in brief: as §11

Veronica didyma Tenore [6] = assay: Weeding effect in pre-emergence stage; settings: 30 g/ha, 4 weeks
Method in brief: as §11

Peanut = assay: Pre-emergence stage, crop selectivity; settings: 30 g/ha, 4 weeks
Method in brief: as §11

Soybeans = assay: Pre-emergence stage, crop selectivity; settings: 30 g/ha, 4 weeks
Method in brief: as §11

corn = assay: Pre-emergence stage, crop selectivity; settings: 30 g/ha, 4 weeks
Method in brief: as §11

cotton = assay: Pre-emergence stage, crop selectivity; settings: 30 g/ha, 4 weeks
Method in brief: as §11

Eclipta prostrate = assay: Composition activity test, post-emergence foliage spray
Protocol: as §1, §2, §3, §4, §5, §6, §7, §8, §9

Lithospermum arvense = assay: as above; settings: B 4.5 g a.i./ha
Protocol: as §1, §2, §3, §4, §5, §6, §7, §8, §9

[7] = Veronica polita, foliar, read-out: Control effect (%) of B applied alone (B)
[8] = Eclipta, foliar, read-out: Control effect (%) of B applied alone (B)

Structure (SMILES): O=C(O)COc1ccc(Cl)cc1Cl [2,4-dichlorophenoxy acetic acid]
- pest or weed control at 150 g/ha (Veronica didyma Tenore [1]; [7]): 32.6%

Structure (SMILES): Cc1cc(Cl)ccc1OCC(=O)O [2-methyl-4-chlorophenoxy acetic acid, 2-methyl-4-chlorophenoxyacetic acid]
- pest or weed control at 150 g/ha (Veronica didyma Tenore [1]; [7]): 39.3%

Structure (SMILES): COC(=O)[C@@H](C)O/N=C/c1cc(N2C(=O)CC(N)(C(F)(F)F)N(C)C2=O)c(F)cc1Cl (stereo partly drawn) [432(R)]
- Weeding effect in post-emergence stage, Abutilon theophrasti (level) (Abutilon theophrasti [2]): 5 (Level 5: growth control rate is above 85%)
- Weeding effect in post-emergence stage, Alopecurus japonicus (level) (Alopecurus japonicus): 5 (Level 5: growth control rate is above 85%)
- Weeding effect in post-emergence stage, Digitaria sanguinalis (level) (Digitaria sanguinalis): 5 (Level 5: growth control rate is above 85%)
- Weeding effect in post-emergence stage, Eleusine indica (level) (Eleusine indica): 5 (Level 5: growth control rate is above 85%)
- Weeding effect in post-emergence stage, Setaria viridis (level) (Setaria viridis [3]): 5 (Level 5: growth control rate is above 85%)
- Weeding effect in post-emergence stage, Echinochloa crusgalli (level) (Echinochloa crusgalli): 5 (Level 5: growth control rate is above 85%)
- activity level (growth control rate) Abutilon theophrasti (Abutilon theophrasti [4]): 5 (Level 5: growth control rate is above 85%)
- activity level (growth control rate) Amaranthus retroflexus (Amaranthus retroflexus): 5 (Level 5: growth control rate is above 85%)
- activity level (growth control rate) Capsella bursa-pastoris (Capsella bursa-pastoris): 5 (Level 5: growth control rate is above 85%)
- activity level (growth control rate) Descurainia sophia (Descurainia sophia): 5 (Level 5: growth control rate is above 85%)
- activity level (growth control rate) Setaria viridis (Setaria viridis [5]): 5 (Level 5: growth control rate is above 85%)
- activity level (growth control rate) Veronica didyma Tenore (Veronica didyma Tenore [6]): 5 (Level 5: growth control rate is above 85%)
- plant damage level Peanut (Peanut): 0 (Level 0: growth control rate is less than 5%)
- plant damage level Soybeans (Soybeans): 0 (Level 0: growth control rate is less than 5%)
- plant damage level Corn (corn): 0 (Level 0: growth control rate is less than 5%)
- plant damage level Cotton (cotton): 0 (Level 0: growth control rate is less than 5%)

Structure (SMILES): COC(=O)C(C)(C)O/N=C/c1cc(-n2c(=O)cc(C(F)(F)F)n(C)c2=O)c(F)cc1Cl [Compound 433]
- Weeding effect in post-emergence stage, Abutilon theophrasti (level) (Abutilon theophrasti [2]): 5 (Level 5: growth control rate is above 85%)
- Weeding effect in post-emergence stage, Alopecurus japonicus (level) (Alopecurus japonicus): 5 (Level 5: growth control rate is above 85%)
- Weeding effect in post-emergence stage, Digitaria sanguinalis (level) (Digitaria sanguinalis): 5 (Level 5: growth control rate is above 85%)
- Weeding effect in post-emergence stage, Eleusine indica (level) (Eleusine indica): 5 (Level 5: growth control rate is above 85%)
- Weeding effect in post-emergence stage, Setaria viridis (level) (Setaria viridis [3]): 5 (Level 5: growth control rate is above 85%)
- Weeding effect in post-emergence stage, Echinochloa crusgalli (level) (Echinochloa crusgalli): 5 (Level 5: growth control rate is above 85%)
- activity level (growth control rate) Abutilon theophrasti (Abutilon theophrasti [4]): 5 (Level 5: growth control rate is above 85%)
- activity level (growth control rate) Amaranthus retroflexus (Amaranthus retroflexus): 5 (Level 5: growth control rate is above 85%)
- activity level (growth control rate) Capsella bursa-pastoris (Capsella bursa-pastoris): 5 (Level 5: growth control rate is above 85%)
- activity level (growth control rate) Descurainia sophia (Descurainia sophia): 5 (Level 5: growth control rate is above 85%)
- activity level (growth control rate) Setaria viridis (Setaria viridis [5]): 5 (Level 5: growth control rate is above 85%)
- activity level (growth control rate) Veronica didyma Tenore (Veronica didyma Tenore [6]): 5 (Level 5: growth control rate is above 85%)
- plant damage level Peanut (Peanut): 0 (Level 0: growth control rate is less than 5%)
- plant damage level Soybeans (Soybeans): 0 (Level 0: growth control rate is less than 5%)
- plant damage level Corn (corn): 0 (Level 0: growth control rate is less than 5%)
- plant damage level Cotton (cotton): 0 (Level 0: growth control rate is less than 5%)

Structure (SMILES): C[C@@H](Oc1nc(F)c(Cl)c(N)c1Cl)C(=O)OCC1CCCO1 (stereo partly drawn) [Cpd B2]
- pest or weed control at 90 g/ha (Veronica didyma Tenore [1]; Veronica polita, foliar, Veronica didyma Tenore, foliage, B 90 g a.i./ha, read-out: Control effect (%) of B applied alone (B)): 42.1%

Structure (SMILES): CC(C)c1nn(C(=O)NC(C)(C)C)c(=O)n1N [amicarbazone]
- Control effect (%) of B applied alone (B) (Eclipta prostrate; Eclipta prostrate, foliage, B 60 g a.i./ha): 43.7%

Structure (SMILES): Nc1cc(Cl)nc(C(=O)O)c1Cl [aminopyralid]
- Control effect (%) of B applied alone (B) (Veronica didyma Tenore [1]; Veronica didyma Tenore, foliage, B 30 g a.i./ha): 32.2%

Structure (SMILES): CC(C)N1C(=O)c2ccccc2NS1(=O)=O [bentazone]
- pest or weed control at 150 g/ha (Eclipta prostrate; foliar, Eclipta prostrate, foliage, B 150 g a.i./ha, read-out: Control effect (%) of B applied alone (B)): 30.2%

Structure (SMILES): CCC(C)n1c(=O)[nH]c(C)c(Br)c1=O (stereo not drawn) [bromacil]
- pest or weed control at 450 g/ha (Eclipta prostrate; [8]): 28.4%

Structure (SMILES): N#Cc1cc(Br)c(O)c(Br)c1 [bromoxynil]
- pest or weed control at 60 g/ha (Eclipta prostrate; foliar, Eclipta prostrate, foliage, B 60 g a.i./ha, read-out: Control effect (%) of B applied alone (B)): 41.2%

Structure (SMILES): CCOC(=O)C(Cl)Cc1cc(-n2nc(C)n(C(F)F)c2=O)c(F)cc1Cl (stereo not drawn) [carfentrazone-ethyl]
- Control effect (%) of B applied alone (B) (Lithospermum arvense): 27.2%

Structure (SMILES): Cc1ccc(NC(=O)N(C)C)cc1Cl [chlorotoluron]
- pest or weed control at 225 g/ha (Eclipta prostrate; foliar, Eclipta prostrate, foliage, B 225 g a.i./ha, read-out: Control effect (%) of B applied alone (B)): 24.5%

Structure (SMILES): O=C(O)c1nc(Cl)ccc1Cl [clopyralid]
- pest or weed control at 45 g/ha (Veronica didyma Tenore [1]; Veronica polita, foliar, Veronica didyma Tenore, foliage, B 45 g a.i./ha, read-out: Control effect (%) of B applied alone (B)): 28.9%

Structure (SMILES): CCOC(=O)Nc1cccc(OC(=O)Nc2ccccc2)c1 [desmedipham]
- pest or weed control at 300 g/ha (Eclipta prostrate; [8]): 16.2%

Structure (SMILES): COc1c(Cl)ccc(Cl)c1C(=O)O [dicamba]
- pest or weed control at 150 g/ha (Veronica didyma Tenore [1]; Veronica polita, foliar, Veronica didyma Tenore, foliage, B 150 g a.i./ha, read-out: Control effect (%) of B applied alone (B)): 29.7%
